Assay results taken from US6699459B2, “Methods of treating lung inflammation” (The Board of Regents of the University of Texas System, priority 2001, dated 2004).
Entries after “also recorded” stand apart in the source; their conditions may differ.

Experiments:
IRF-7 mRNA = test: Northern blot of IRF-7 mRNA in RSV-infected A549 cells; assay type: cell-based, human; conditions: 400 μM
Description: (§1) Northern Blot. Total RNA was extracted from control and infected A549 cells by the acid guanidium thiocyanate-phenol chloroform method (18). Twenty micrograms of RNA were fractionated on a 1.2% agarose-formaldehyde gel, transferred to nylon membranes and hybridized to a radiolabeled RANTES, IRF-1, -3 and -7 cDNAs, as previously described (19). Hybridization temperature for all probes was 55° C. After washing, membranes were exposed for autoradiography using Kodak XAR film at −70° C. using intensifying screens. After exposure, membranes were stripped and rehybridized with a β-actin probe.

IRF-7 ISRE = test: EMSA of IRF-7 ISRE binding complexes, nuclear extracts of RSV-infected A549 cells; assay type: cell-based, human; conditions: all time points, 400 μM
Description: Electrophoretic mobility shift assay (EMSA): Nuclear extracts of uninfected and infected A549 cells were prepared using hypotonic/nonionic detergent lysis, as previously described (20). Proteins were normalized by protein assay (Protein Reagent, Bio-Rad, Hercules, Calif.) and used to bind to a duplex oligonucleotide corresponding to the IRF-1 gamma interferon activated sequence (GAS) and IRF-7 ISRE, whose sequences are shown below.
DNA-binding reactions contained 10-15 μg nuclear proteins, 5% glycerol, 12 mM HEPES, 80 mM NaCl, 5 mM DTT, 5 mM Mg2Cl, 0.5 mM EDTA, 1 μg of poly dI-dC and 40,000 cpm of ^32P-labeled double-stranded oligonucleotide in a total volume of 20 μl. The nuclear proteins were incubated with the probe for 15 minutes at room temperature and then fractionated by 4% nondenaturing polyacrylamide gels (PAGE) in 0.5× TBE buffer (22 mM Tris-HCl, 22 mM boric acid, 0.25 MM EDTA, pH 8), at 120 volts. After electrophoretic separation, gels were dried and exposed for autoradiography using Kodak XAR film at −70° C. using intensifying screens. In the gel mobility supershift, commercial antibodies against specific transcription factors were added to the binding reactions and incubated on ice for one hour prior to fractionation on 6% PAGE.

β-actin = β-actin mRNA (Northern blot) in A549 cells; assay type: cell-based, human; conditions: 400 μM, compared to untreated cells
Description: as §1

ROS = test: H2O2-induced ROS production in A549 cells (DCF oxidation); assay type: cell-based, human; conditions: 200 μM H2O2, 400 μM BHA
Description: Assesment of intracellular ROS generation. A549 cells were grown in 96-well tissue culture plates and infected with RSV, at 0.1, 0.5 and 1 multiplicity of infection (MOI). At different times post-infection, cells were washed with Hank's Balanced Salt Solution (HBSS) and loaded with 10 μM 2,7 dichlorofluorescein diacetate (DCF-DA) in HBSS medium containing 25 mM HEPES, pH 7.4, for 30 minutes at 37° C. The cells were then washed twice and fluorescence intensity was determined at 485 nm excitation and 590 nm emission, using an automated fluorescence reader (Flurocount, Hewlett-Packard Instruments, IL). For the experiments in which H2O2 was used as a stimulus for ROS production, cells were preloaded with […] DCF-DA for 30 minutes, washed and then fluorescence intensity was measured at different times following addition of H2O2. Measurements were performed in triplicate and results expressed as fluorescence mean±S.D. of n=3 independent experiments.

STAT-1 = test: Western blot of phosphorylated and total nuclear STAT-1 in RSV-infected A549 cells; assay type: cell-based, human; conditions: nuclear proteins, 400 μM
Description: Western Immunoblot. Nuclear proteins were prepared as previously described, fractionated by SDS-PAGE and transferred to PVDF membrane (20). Membranes were blocked with 5% albumin in TBS-Tween and incubated overnight with antibody recognizing the tyrosine phosphorylated form of STAT-1 and STAT-3 (Santa Cruz Biotech, Santa Cruz, Calif.). Membranes were stripped and reprobed with antibodies to STAT-1 and STAT-3 (Santa Cruz Biotech, Santa Cruz, Calif.). For secondary detection, a horseradish-coupled anti-rabbit or anti-mouse antibody was used (Santa Cruz Biotech, Santa Cruz, Calif.) in the enhanced chemiluminescence assay (Amersham Life Science, Arlington Heights, Ill.).

human IRF-7 promoter = test: IRF-7 promoter luciferase reporter in A549 cells; assay type: cell-based
Description: Cell transfection. To investigate IRF-1 and -7 gene transcription, A549 cells were transiently transfected with the IRF-1 or -7 promoter, linked to the luciferase reporter gene. Logarithmically growing A549 cells were transfected in triplicate in 60 mm petri dishes by DEAE-Dextran, as previously described (20). Cells were incubated in 2 ml of HEPES buffered DMEM (10 mM Hepes, pH 7.4) containing 20 μl of 60 mg/ml DEAE-Dextran (Amersham Pharmacia Biotec, Arlington Heights, Ill.) premixed with 6 μg of either IRF-1 or -7 plasmids and 1 μg CMV-β galactosidase internal control plasmid. After 3 hours, media was removed and 0.5 ml of 10% (v/v) DMSO in PBS was added to the cells for 2 minutes. Cells were washed with PBS and cultured overnight in 10% FBS/DMEM. The next morning, cells were infected with RSV and cells were lysed at different times post-infectionto measure independently luciferase and galactosidase reporter activity, as previously described (20). Luciferase was normalized to the internal control galactosidase activity. All experiments were performed in duplicate or triplicate.

IRF-1 mRNA = test: Northern blot of IRF-1 mRNA in RSV-infected A549 cells; assay type: cell-based, human; conditions: 400 μM
Description: as §1

human RANTES promoter = test: RANTES promoter luciferase reporter in RSV-infected A549 cells; assay type: cell-based; conditions: RSV 24 hours, 400 μM
From the text: Plasmid construction and cell transfection. A fragment of the human RANTES promoter spanning from −220 to +55 nucleotides (nt), relative to the mRNA start site designated +1 was cloned into the luciferase reporter gene vector pGL2 (Promega, Madison, Wis.) and defined as pGL2-220. Site mutations of the RANTES ISRE in the context of pGL2-220 plasmid were introduced by PCR using the following upstream and downstream mutagenic primers (mutations in lower cases): […]
Logarithmically growing A549 cells were transfected in triplicate in 60 mm petri dishes by DEAE-Dextran, as previously described (20). Cells were incubated in 2 ml of HEPES buffered Dulbecco's modified Eagle's medium (DMEM) (10 mM Hepes, pH 7.4) containing 20 μl of 60 mg/ml DEAE-Dextran (Amersham Pharmacia Biotec, Arlington Heights, Ill.) premixed with 6 μg of RANTES-pGL2 plasmids and 1 μg cytomegalovirus (CMV)-β galactosidase internal control plasmid. After 3 hours, media was removed and 0.5 ml of 10% (v/v) DMSO in phosphate buffered saline (PBS) was added to the cells for 2 minutes. Cells were washed with PBS and cultured overnight in 10% FBS/DMEM. The next morning, cells were infected with RSV and at 24 hours post-infection cells were lysed to measure independently luciferase and β-galactosidase reporter activity, as previously described (20). Luciferase was normalized to the internal control β-galactosidase activity. […]

COc1ccc(O)c(C(C)(C)C)c1 [BHA, butylated hydroxyanisol]
IRF-7 mRNA accumulation (IRF-7 mRNA; 6 and 12 hours post-infection): almost completely blocked
IRF-7 mRNA accumulation (IRF-7 mRNA; 24 hours post-infection): significantly reduced
binding of the RSV-inducible complexes to the IRF-7 ISRE probe (IRF-7 ISRE): greatly reduced
levels of the housekeeping gene β-actin (β-actin): does not affect; also recorded: not systematically reduced
H2O2-induced ROS production (ROS): almost completely inhibited
RSV-induced STAT-1 phosphorylation (STAT-1): completely blocked
RSV-inducible nuclear STAT-1 form (STAT-1): disappears
nuclear STAT-1 form present in uninfected and infected cells (STAT-1): not affected
basal level of transcription (IRF-7 promoter) (human IRF-7 promoter; A549 cells): did not affect
RSV-induced luciferase activity (IRF-7 promoter) (human IRF-7 promoter; RSV 6 hours, 400 μM): completely abolished
IRF-1 mRNA accumulation (IRF-1 mRNA; 6 and 12 hours post-infection): almost completely blocked
IRF-1 mRNA accumulation (IRF-1 mRNA; 24 hours post-infection): significantly reduced
RSV-induced luciferase activity (RANTES promoter) (human RANTES promoter): almost completely abolished
